Where two headings read alike, the source gives them in different places.
Key:
[1] = tested on: intracellular domain of FGFR3; experiment: tyrosine phosphorylation in Ba/F3 cells (Western), FGFR3; type: cell-based, human; conditions: masitinib 1 μM, 10 ng/ml FGF
[2] = tested on: patients with relapsing or refractory multiple myeloma; experiment: open-label phase 2 study, masitinib plus bortezomib/dexamethasone (VD); type: in vivo, human
Description: Initially, this study was to investigate the safety and efficacy of masitinib administered in combination with the chemotherapy regimens of masitinib plus (dexamethasone/bortezomib/thalidomide); or masitinib plus (dexamethasone/bortezomib/adriamycin). However, after early preliminary results both these latter arms were eliminated from the study due to a tendency of higher incidence of adverse events or because these were not considered a gold standard treatment in this pathology. […] Velcade: 1.3 mg/m^2 intravenously; Level 1: Days 1 and 4; Level 2: Days 1, 4, 8 and 11 Dexamethasone: 40 mg/day, orally; Level 1: Days 1 to 4; Level 2: Days 1 to 4, 8 and 11 Adriamycin: 9 mg/m2 intravenously (bolus or perfusion); Days 1 to 4 Thalidomide: 200 mg/day, orally, once daily in the evening […] The two dosing regimens of the bortezomib plus dexamethasone combination (VD) were successively tested. After the observation that a low level of VD was well tolerated in four patients, the following patients were treated at a higher level. Included were patients with refractory or relapsing multiple myeloma: • With t(4; 14) translocation regardless of FGFR3 status, i.e. expressing FGFR3 or not; • or without a t(4; 14) translocation and relapsing within 1 year after the first line therapy including or not bone marrow transplantation. All patients were to receive combination therapy for the planned number of cycles or until disease progression, after which they could continue with masitinib plus dexamethasone in an extension phase.

[3] = molecular target: Lyn (Homo sapiens, UniProt P07948); experiment: inhibition of Lyn kinase
[4] = tested on: fresh plasma cells from patients with t(4;14) multiple myeloma expressing FGFR3; experiment: proliferation of fresh plasma cells from patients; type: cell-based, human
Experimental: Bone marrow plasma cells were CD138-selected using MACS systems (Miltenyi Biotec, Germany). […] [6-^3H] thymidine (Amersham Biosciences, UK) was added (1 μCi/well) for 16 hours. Thymidine incorporation was measured by liquid scintillation counting (Wallace, PerkinElmer). All experiments were performed in triplicate.

[5] = tested on: LP1 cells (t(4;14) positive); experiment: thymidine proliferation assay, LP1; type: cell-based, human
Experimental: (§1) Multiple myeloma cell lines RPMI 8226, U266 (t(4;14) negative) and OPM2, LP1, NCI-H929 (t(4;14) positive) were cultured in RPMI medium (Gibco-BRL) supplemented with 10% fetal calf serum (FCS, Life Technologies), 100 units/ml penicillin, 100 μg/ml streptomycin, except LP1 which were cultured in DMEM (Gibco-BRL). Bone marrow plasma cells were CD138-selected using MACS systems (Miltenyi Biotec, Germany). […] [6-^3H] thymidine (Amersham Biosciences, UK) was added (1 μCi/well) for 16 hours. Thymidine incorporation was measured by liquid scintillation counting (Wallace, PerkinElmer). All experiments were performed in triplicate.

[6] = tested on: NCI-H929 cells (t(4;14) positive); experiment: thymidine proliferation assay, NCI-H929; type: cell-based; conditions: Homo sapiens
Experimental: as §1

[7] = tested on: U266 cells (t(4;14) negative); experiment: thymidine proliferation assay, U266; type: cell-based, human
Experimental: as §1

[8] = tested on: FGFR3 expressing Ba/F3 cells; experiment: proliferation of FGFR3 expressing Ba/F3 cells; type: cell-based, mouse; conditions: FIG. 1A, dose-dependent
Experimental: [6-^3H] thymidine (Amersham Biosciences, UK) was added (1 μCi/well) for 16 hours. Thymidine incorporation was measured by liquid scintillation counting (Wallace, PerkinElmer). All experiments were performed in triplicate.

[9] = tested on: RPMI 8226 cells (t(4;14) negative); experiment: thymidine proliferation assay, RPMI 8226; type: cell-based, human
Experimental: as §1

[10] = tested on: OPM2 cells (t(4;14) positive); experiment: thymidine proliferation assay, OPM2; type: cell-based, human
Experimental: as §1

[11] = tested on: human cord blood mast cells; conditions: cited from earlier work
[12] = tested on: intrinsic PDGF receptor; experiment: tyrosine phosphorylation in Ba/F3 cells (Western), PDGF receptor positive control; type: cell-based; conditions: FIG. 1B
[13] = tested on: patients with relapsed or refractory t(4;14) multiple myeloma
[14] = 13 patients receiving VD as second line therapy (first relapse)
[15] = cohort VD Level 2, two patients
[16] = masitinib plus VD, all 17 patients
[17] = beyond first relapse, aggressive relapse
[18] = beyond first relapse, non-aggressive relapse
[19] = masitinib plus dexamethasone combination therapy
[20] = more than two previous lines (beyond first relapse)
[21] = second line of treatment (first relapse)

Sequence of Lyn (P07948 whole entry, species assumed): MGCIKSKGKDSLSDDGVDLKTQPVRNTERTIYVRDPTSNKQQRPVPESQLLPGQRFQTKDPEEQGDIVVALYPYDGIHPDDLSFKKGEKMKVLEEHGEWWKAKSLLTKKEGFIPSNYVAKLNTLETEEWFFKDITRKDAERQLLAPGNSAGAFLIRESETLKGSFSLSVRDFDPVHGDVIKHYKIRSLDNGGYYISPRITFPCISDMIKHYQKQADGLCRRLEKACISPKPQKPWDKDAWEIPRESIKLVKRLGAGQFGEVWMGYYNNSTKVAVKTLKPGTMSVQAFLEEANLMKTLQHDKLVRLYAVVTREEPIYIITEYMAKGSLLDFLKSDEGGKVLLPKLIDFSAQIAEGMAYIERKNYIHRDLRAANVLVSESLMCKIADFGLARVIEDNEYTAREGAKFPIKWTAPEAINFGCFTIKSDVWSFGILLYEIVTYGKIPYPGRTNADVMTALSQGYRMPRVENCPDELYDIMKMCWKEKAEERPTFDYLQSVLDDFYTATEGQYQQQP

Cc1ccc(NC(=O)c2ccc(CN3CCN(C)CC3)cc2)cc1Nc1nc(-c2cccnc2)cs1 [masitinib, 4-(4-methylpiperazin-1-ylmethyl)-N-[4-methyl-3-(4-pyridin-3ylthiazol-2-ylamino)phenyl]benzamide]
phosphorylation of the intracellular domain of FGFR3 [1]: inhibited
Median PFS ([2]; 4 patients treated at level 1): 2.9 months
Median OS [2, 14]: 22.3 months
Median PFS [2, 14]: 9.3 months
Median PFS ([2]; 13 patients treated at level 2): 7.4 months
Median overall survival (OS) ([2]; 13 patients treated at level 2): 20.0 months
patients with best response of partial response ([2]; VD as second line therapy, eleven of 12): 92%
Median overall survival (OS) ([2]; all patients): 18.1 months
grade 4 adverse event suspected to be treatment-related ([2]; cohort VD Level 1): No grade 4 adverse event
patients with at least one AE suspected to be treatment-related ([2]; cohort VD Level 1, 4 patients): All patients
patients with at least one AE suspected to be treatment-related ([2]; cohort VD Level 2, 8 of 13 patients): 62%
patients with a grade 3 AE suspected to be treatment-related [2, 15]: 15%
patients with at least one grade 4 AE suspected to be treatment-related [2, 15]: 15%
patients still alive at the cut-off date ([2]; five of 17 VD patients, 31 Mar. 2010): 29%
patients with a very good partial response ([2]; intent-to-treat population): five
response rate (complete response or partial response) ([2]; intent-to-treat population): 75%
patients with at least one AE suspected to be treatment-related [2, 16]: 71%
patients with at least one grade 4 AE suspected to be treatment-related [2, 16]: 12%
median progression free survival (PFS) ([2]; overall VD population): 7.4 months
response rate (complete response or partial response) ([2]; per-protocol population): 86%
Median OS ([2]; t(4;14) negative patients): 25.3 months
Median PFS ([2]; t(4;14) negative patients): 9.3 months
patients with best response of partial response ([2]; t(4;14) negative patients, three of five): 60%
Median OS ([2]; t(4;14) positive patients): 17.1 months
Median PFS ([2]; t(4;14) positive patients): 5.9 months
patients with best response of partial response ([2]; t(4;14) positive patients, 8 out of 10): 80%
concentrations at which the kinase is inhibited [3]: submicromolar
proliferation [4]: inhibited
inhibition at 2 µM ([5]; Homo sapiens, LP-1): 50%
anti-proliferative interaction with dexamethasone ([5]; combination with dexamethasone, FGF-activated LP1): synergy
reduction of proliferation compared to dexamethasone alone ([5]; masitinib added to dexamethasone, 5 times less dexamethasone, FGF-activated LP1): 2 fold
inhibition at 2 µM [6]: 50%
proliferation ([7]; U266, t(4;14) negative): significantly and dose-dependently decreased
anti-proliferative interaction with dexamethasone ([7]; combination with dexamethasone, U266): synergy
reduction of proliferation compared to dexamethasone alone ([7]; masitinib added to dexamethasone, 5 times less dexamethasone, U266): 7 fold
growth of BaF3 cell expressing the intracellular kinase domain of FGFR3 [8]: inhibited
effect on proliferation [9]: no effect
anti-proliferative interaction with dexamethasone ([10]; combination with dexamethasone): synergy
reduction of proliferation compared to dexamethasone alone ([10]; masitinib added to dexamethasone, 5 times less dexamethasone): 2 fold
FcεRI-mediated degranulation [11]: inhibition
phosphorylation of the PDGF receptor [12]: Inhibition
patients with rashes ([13]; 2 patients): 8.3%
patients with suspected diarrhea ([13]; 10 patients): 41.7%
patients with drug-related edema ([13]; 13 patients): 54.2%
patients with nausea and/or vomiting ([13]; 16 patients, suspected AE): 66.7%
patients with suspected masitinib-related (or not assessable) adverse events ([13]; 21 of 24 patients): 87.5%
suspected masitinib-related (or not assessable) adverse events, total number ([13]; 24 patients): 145
median overall survival ([13]; all 24 patients): 19.8 months
median progression free survival (PFS) ([13]; all 24 patients): 3.9 months
survival ([13]; all patients with unsatisfactory response to previous treatment or in first relapse): at least 1 year
median overall survival [13, 17]: 8.1 months
median progression free survival (PFS) [13, 17]: 2.1 months
median overall survival [13, 18]: 25.4 months
median progression free survival (PFS) [13, 18]: 3.9 months
patients who discontinued because of AEs suspected to be masitinib-related ([13]; five patients): 20.8%
patients with severe edema ([13]; in vivo): two
patients with severe nausea ([13]; in vivo): Three
patients with Minor Response [13, 19]: 5 patients
patients with very good partial response (IMWG criteria) [13, 19]: one
response in patients with aggressive relapse [13, 19]: No response
median overall survival [13, 20]: 8.6 months
median progression free survival (PFS) [13, 20]: 3.0 months
patients still alive after 2 years ([13]; overall): 43.5%
median overall survival [13, 21]: 35.7 months
median progression free survival (PFS) [13, 21]: 9.1 months
patients with at least one suspected masitinib-related (or not assessable) serious adverse event ([13]; seven patients): 29.2%
patients with severe suspected adverse events (non-hematological grade 3/4) ([13]; seven patients): 29.2%
patients with acute renal failure ([13]; severe): two

From patent US20140051662A1 (priority 2011, published 2014)
